Activity calls are given as the source filed them.
Assays:
[1] = target: LIM domain kinase 2 (Homo sapiens, UniProt P53671)
[2] = target: Tyrosine-protein kinase ABL2 (Homo sapiens, UniProt P42684)
[3] = target: RAC-alpha serine/threonine-protein kinase (Homo sapiens, UniProt P31749)
[4] = target: Myosin light chain kinase, smooth muscle (Homo sapiens, UniProt Q15746)
[5] = target: Bone morphogenetic protein receptor type-1A (Homo sapiens, UniProt P36894)
[6] = target: T1, Probable ATP-dependent RNA helicase DDX6 (Homo sapiens, UniProt P26196)
T1 sequence (P26196 whole entry): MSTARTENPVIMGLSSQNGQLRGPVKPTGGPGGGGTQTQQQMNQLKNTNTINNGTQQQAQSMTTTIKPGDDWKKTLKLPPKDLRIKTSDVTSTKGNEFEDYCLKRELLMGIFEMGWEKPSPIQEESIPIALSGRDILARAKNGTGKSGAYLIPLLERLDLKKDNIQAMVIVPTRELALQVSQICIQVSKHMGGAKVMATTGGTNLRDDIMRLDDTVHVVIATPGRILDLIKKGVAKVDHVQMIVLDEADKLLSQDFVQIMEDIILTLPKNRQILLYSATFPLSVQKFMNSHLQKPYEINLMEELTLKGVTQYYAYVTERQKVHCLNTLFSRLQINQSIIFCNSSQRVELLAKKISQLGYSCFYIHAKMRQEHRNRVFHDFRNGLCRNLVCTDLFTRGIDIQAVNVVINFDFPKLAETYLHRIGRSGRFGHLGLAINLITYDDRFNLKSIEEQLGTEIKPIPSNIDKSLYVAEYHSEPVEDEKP

[7] = target: T2, Serine/threonine-protein kinase LATS1 (Homo sapiens, UniProt O95835)
T2 sequence (O95835 whole entry): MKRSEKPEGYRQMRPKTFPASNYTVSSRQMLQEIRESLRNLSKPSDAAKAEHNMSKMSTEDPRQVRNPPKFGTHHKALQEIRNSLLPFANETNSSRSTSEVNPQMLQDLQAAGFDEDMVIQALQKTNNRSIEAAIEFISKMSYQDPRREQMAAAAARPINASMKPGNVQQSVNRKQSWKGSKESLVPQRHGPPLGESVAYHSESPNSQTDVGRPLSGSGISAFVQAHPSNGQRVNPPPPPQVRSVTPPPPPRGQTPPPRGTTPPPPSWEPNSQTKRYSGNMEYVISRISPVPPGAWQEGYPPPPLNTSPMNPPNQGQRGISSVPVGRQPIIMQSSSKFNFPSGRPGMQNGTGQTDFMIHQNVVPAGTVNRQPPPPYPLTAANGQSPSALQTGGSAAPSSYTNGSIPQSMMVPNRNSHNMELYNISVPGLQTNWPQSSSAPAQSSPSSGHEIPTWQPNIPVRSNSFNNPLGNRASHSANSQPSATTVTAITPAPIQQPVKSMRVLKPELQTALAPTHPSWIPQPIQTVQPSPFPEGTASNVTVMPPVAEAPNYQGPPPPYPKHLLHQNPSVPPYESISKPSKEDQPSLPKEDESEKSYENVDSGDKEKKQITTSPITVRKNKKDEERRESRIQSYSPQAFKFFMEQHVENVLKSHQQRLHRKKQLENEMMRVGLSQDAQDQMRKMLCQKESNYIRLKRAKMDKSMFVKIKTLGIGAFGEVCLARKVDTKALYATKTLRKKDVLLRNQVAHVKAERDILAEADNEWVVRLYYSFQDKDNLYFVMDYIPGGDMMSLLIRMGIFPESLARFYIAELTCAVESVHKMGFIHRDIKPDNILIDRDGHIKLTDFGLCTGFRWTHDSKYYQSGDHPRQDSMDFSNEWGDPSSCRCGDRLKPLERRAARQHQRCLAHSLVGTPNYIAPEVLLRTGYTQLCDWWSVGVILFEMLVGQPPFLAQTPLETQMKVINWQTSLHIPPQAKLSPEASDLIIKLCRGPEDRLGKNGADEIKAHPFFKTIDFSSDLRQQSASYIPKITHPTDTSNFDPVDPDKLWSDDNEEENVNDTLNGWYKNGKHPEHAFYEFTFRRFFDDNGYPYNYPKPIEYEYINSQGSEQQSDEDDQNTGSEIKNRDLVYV

[8] = target: Calcium/calmodulin-dependent protein kinase type II subunit delta (Homo sapiens, UniProt Q13557)
[9] = target: T3, Peroxisomal acyl-coenzyme A oxidase 1 (Homo sapiens, UniProt Q15067)
T3 sequence (Q15067 whole entry): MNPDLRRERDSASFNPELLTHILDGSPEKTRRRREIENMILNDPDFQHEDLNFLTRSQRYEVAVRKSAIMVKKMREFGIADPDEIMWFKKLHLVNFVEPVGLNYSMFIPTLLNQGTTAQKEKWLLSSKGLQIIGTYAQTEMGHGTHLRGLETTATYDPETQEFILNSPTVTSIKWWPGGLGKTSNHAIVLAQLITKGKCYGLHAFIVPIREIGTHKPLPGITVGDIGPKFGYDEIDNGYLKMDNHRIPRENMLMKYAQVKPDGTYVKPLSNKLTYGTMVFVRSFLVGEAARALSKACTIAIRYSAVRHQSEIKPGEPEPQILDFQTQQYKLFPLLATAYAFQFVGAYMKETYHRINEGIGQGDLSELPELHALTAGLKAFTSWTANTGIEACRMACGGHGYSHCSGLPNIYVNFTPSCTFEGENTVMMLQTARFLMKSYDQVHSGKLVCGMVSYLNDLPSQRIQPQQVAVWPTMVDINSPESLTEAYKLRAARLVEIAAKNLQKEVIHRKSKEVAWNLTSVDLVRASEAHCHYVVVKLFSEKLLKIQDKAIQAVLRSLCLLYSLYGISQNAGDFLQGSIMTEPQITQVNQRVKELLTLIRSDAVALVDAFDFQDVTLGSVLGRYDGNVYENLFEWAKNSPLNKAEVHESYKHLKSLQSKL

[10] = target: Casein kinase I isoform delta (Homo sapiens, UniProt P48730)
Note: in the data inactive means no Kd found up to 30 µM.

Chain of Calcium/calmodulin-dependent protein kinase type II subunit delta (Q13557 whole entry): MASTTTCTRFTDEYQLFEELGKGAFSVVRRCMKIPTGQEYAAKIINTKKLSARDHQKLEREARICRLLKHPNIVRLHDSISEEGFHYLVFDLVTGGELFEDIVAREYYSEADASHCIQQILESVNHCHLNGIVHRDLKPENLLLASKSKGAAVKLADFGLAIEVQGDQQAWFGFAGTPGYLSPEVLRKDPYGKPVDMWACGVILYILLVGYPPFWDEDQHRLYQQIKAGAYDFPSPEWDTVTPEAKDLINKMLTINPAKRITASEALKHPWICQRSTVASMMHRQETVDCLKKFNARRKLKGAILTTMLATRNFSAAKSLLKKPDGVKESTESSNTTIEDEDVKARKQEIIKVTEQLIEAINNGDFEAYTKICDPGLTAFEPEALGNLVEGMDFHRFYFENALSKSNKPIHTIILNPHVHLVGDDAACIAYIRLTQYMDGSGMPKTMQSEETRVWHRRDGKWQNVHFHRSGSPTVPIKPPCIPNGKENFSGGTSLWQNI
Chain of Bone morphogenetic protein receptor type-1A (P36894 whole entry): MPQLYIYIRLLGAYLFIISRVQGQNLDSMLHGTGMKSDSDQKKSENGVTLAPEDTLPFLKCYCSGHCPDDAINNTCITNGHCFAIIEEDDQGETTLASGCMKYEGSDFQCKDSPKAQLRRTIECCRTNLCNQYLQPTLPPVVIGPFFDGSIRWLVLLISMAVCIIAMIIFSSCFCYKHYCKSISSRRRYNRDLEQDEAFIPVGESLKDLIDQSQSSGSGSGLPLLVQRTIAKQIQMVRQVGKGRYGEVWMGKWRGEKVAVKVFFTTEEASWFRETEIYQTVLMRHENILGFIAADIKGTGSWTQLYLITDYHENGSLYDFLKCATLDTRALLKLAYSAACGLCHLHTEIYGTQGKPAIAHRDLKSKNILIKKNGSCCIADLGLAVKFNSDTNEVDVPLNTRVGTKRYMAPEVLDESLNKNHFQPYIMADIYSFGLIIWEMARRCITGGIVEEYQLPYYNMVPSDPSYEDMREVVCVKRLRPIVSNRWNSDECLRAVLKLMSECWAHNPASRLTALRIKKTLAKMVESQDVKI
Chain of Myosin light chain kinase, smooth muscle (Q15746 whole entry): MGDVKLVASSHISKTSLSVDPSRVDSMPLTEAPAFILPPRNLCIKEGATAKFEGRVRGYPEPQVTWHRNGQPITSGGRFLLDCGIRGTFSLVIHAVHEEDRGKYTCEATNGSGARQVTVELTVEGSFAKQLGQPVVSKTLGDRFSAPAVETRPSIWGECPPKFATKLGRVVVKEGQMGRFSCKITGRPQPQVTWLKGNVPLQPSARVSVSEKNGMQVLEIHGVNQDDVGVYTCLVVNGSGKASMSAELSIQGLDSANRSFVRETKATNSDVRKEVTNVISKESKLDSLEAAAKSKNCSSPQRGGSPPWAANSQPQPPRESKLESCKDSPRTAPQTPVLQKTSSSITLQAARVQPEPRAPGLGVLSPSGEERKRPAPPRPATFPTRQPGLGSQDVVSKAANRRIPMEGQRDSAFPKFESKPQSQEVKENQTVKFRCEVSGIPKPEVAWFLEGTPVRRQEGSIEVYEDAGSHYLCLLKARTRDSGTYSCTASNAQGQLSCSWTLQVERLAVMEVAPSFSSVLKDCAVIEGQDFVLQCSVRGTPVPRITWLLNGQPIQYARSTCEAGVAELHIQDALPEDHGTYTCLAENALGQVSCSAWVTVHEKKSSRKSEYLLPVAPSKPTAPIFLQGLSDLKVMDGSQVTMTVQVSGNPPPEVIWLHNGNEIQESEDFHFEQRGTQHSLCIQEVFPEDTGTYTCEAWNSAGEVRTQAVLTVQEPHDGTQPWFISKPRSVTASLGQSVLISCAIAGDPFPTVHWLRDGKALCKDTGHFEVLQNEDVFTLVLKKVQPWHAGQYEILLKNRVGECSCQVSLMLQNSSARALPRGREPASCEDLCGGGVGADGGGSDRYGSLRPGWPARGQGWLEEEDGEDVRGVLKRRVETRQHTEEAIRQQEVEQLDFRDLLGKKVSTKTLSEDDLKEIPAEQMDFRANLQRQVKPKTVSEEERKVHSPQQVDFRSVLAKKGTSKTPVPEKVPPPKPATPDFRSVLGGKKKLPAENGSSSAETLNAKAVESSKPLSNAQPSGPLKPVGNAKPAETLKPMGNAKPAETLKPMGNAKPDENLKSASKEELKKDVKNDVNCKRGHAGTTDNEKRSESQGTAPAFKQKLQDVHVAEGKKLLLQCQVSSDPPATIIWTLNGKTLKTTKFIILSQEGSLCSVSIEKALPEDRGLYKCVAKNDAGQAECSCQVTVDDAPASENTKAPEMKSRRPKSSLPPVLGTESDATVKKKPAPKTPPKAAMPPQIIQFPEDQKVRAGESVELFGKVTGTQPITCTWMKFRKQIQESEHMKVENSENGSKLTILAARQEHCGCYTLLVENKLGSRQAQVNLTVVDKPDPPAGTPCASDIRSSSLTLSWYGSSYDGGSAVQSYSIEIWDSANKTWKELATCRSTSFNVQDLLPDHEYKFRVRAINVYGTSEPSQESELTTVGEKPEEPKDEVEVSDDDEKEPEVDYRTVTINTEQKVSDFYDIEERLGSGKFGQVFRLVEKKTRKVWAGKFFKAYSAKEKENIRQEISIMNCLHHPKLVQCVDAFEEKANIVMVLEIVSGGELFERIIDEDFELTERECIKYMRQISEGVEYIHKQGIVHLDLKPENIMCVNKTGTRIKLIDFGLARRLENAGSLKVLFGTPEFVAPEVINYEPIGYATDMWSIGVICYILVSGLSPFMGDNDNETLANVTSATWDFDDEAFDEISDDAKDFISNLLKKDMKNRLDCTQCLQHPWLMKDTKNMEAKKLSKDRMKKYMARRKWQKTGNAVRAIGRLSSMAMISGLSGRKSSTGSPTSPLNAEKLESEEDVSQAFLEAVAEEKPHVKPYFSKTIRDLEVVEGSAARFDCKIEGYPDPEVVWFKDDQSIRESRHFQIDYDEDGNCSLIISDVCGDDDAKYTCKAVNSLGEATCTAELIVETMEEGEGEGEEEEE
Chain of LIM domain kinase 2 (P53671 whole entry, the tested form may be a part): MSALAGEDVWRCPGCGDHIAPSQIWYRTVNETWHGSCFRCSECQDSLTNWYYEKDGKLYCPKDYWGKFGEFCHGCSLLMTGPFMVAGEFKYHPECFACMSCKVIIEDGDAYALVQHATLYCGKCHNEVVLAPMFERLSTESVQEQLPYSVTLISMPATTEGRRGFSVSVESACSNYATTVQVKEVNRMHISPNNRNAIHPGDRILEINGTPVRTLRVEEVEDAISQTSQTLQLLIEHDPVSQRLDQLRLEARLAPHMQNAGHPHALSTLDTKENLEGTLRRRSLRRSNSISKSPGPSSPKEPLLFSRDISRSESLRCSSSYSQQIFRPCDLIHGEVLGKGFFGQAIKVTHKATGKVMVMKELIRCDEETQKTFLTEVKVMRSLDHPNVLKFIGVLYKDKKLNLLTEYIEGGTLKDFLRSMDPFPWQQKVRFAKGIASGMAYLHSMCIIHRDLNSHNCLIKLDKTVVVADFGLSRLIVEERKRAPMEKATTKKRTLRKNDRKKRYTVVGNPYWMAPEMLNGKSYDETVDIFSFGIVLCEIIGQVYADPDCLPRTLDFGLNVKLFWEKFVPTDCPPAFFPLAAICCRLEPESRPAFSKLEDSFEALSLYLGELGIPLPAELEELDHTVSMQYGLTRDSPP
Chain of Casein kinase I isoform delta (P48730 whole entry, canonical isoform): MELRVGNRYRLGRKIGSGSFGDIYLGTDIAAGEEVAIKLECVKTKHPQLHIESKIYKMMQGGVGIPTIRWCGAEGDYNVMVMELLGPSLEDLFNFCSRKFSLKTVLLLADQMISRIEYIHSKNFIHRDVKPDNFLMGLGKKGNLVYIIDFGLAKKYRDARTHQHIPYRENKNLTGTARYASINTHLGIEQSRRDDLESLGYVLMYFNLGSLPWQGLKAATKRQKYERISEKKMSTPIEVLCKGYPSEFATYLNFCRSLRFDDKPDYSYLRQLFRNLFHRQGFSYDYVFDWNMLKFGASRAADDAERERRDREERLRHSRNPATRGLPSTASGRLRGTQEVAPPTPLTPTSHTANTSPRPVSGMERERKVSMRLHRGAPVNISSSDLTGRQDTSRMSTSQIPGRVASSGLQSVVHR
Chain of RAC-alpha serine/threonine-protein kinase (P31749 whole entry): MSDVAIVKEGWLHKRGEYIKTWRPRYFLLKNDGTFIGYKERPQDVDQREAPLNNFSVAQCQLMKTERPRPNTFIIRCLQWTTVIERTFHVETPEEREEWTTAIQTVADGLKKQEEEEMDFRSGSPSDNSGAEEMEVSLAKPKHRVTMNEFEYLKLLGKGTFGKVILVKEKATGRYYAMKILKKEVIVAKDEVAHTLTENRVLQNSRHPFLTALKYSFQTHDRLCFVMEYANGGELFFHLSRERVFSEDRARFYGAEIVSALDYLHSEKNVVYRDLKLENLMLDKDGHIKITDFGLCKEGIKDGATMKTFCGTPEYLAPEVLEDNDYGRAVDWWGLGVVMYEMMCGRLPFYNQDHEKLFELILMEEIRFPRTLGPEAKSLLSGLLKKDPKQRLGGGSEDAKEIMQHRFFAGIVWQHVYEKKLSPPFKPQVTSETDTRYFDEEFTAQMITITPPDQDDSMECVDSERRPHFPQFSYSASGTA

Row | Compound | Kd [1] | Kd [2] | Kd [3] | Kd [4] | Kd [5] | Kd [6] | Kd [7] | Kd [8] | Kd [9] | Kd [10]
1 | C[C@@H]1CN(Cc2ccc(F)cc2)[C@@H](C)CN1C(=O)c1cc2c(C(=O)C(=O)N(C)C)cn(C)c2cc1Cl [TALMAPIMOD] | > 30 µM (inactive) | > 30 µM (inactive) | > 30 µM (inactive) | > 30 µM (inactive) | > 30 µM (inactive) | > 30 µM (inactive) | > 30 µM (inactive) | > 30 µM (inactive) | > 30 µM (inactive) | > 30 µM (inactive)
2 | C1=C/COCc2cc(ccc2OCCN2CCCC2)Nc2nccc(n2)-c2cccc(c2)COC/1 [PACRITINIB] | 52.1 µM (active) | > 30 µM (inactive) | > 30 µM (inactive) | > 30 µM (inactive) | > 30 µM (inactive) | > 30 µM (inactive) | > 30 µM (inactive) | > 30 µM (inactive) | > 30 µM (inactive) | > 30 µM (inactive)
3 | CNC(=O)c1ccc(-c2cnc3ncc(Cc4ccc5ncccc5c4)n3n2)cc1F [CAPMATINIB] | > 30 µM (inactive) | > 30 µM (inactive) | > 30 µM (inactive) | > 30 µM (inactive) | > 30 µM (inactive) | > 30 µM (inactive) | > 30 µM (inactive) | > 30 µM (inactive) | > 30 µM (inactive) | > 30 µM (inactive)
4 | CNC(=O)CN1CCC(Oc2cc3c(Nc4cccc(Cl)c4F)ncnc3cc2OC)CC1 [SAPITINIB] | > 30 µM (inactive) | > 30 µM (inactive) | > 30 µM (inactive) | > 30 µM (inactive) | > 30 µM (inactive) | > 30 µM (inactive) | > 30 µM (inactive) | > 30 µM (inactive) | > 30 µM (inactive) | > 30 µM (inactive)
5 | Cc1ccc(S(=O)(=O)Nc2nc3ccccc3nc2Nc2ccc3nsnc3c2)cc1 | > 30 µM (inactive) | > 30 µM (inactive) | > 30 µM (inactive) | > 30 µM (inactive) | > 30 µM (inactive) | > 30 µM (inactive) | > 30 µM (inactive) | > 30 µM (inactive) | > 30 µM (inactive) | > 30 µM (inactive)
6 | N[C@@H]1CCCN(c2c(/C=C3\SC(=O)NC3=O)cccc2-c2ccccc2)C1 | > 30 µM (inactive) | > 30 µM (inactive) | > 30 µM (inactive) | > 30 µM (inactive) | > 30 µM (inactive) | > 30 µM (inactive) | > 30 µM (inactive) | > 30 µM (inactive) | > 30 µM (inactive) | > 30 µM (inactive)
7 | CN1CCC(COc2cnc(-c3cccc(Cn4nc(-c5cccc(C#N)c5)ccc4=O)c3)nc2)CC1 [TEPOTINIB] | > 30 µM (inactive) | > 30 µM (inactive) | > 30 µM (inactive) | > 30 µM (inactive) | > 30 µM (inactive) | > 30 µM (inactive) | > 30 µM (inactive) | > 30 µM (inactive) | > 30 µM (inactive) | > 30 µM (inactive)
8 | O=C(c1ccc(F)c(F)c1Nc1ccc(I)cc1F)N1CC(O)([C@@H]2CCCCN2)C1 [COBIMETINIB] | > 30 µM (inactive) | > 30 µM (inactive) | > 30 µM (inactive) | > 30 µM (inactive) | > 30 µM (inactive) | > 30 µM (inactive) | > 30 µM (inactive) | > 30 µM (inactive) | > 30 µM (inactive) | > 30 µM (inactive)
9 | CNC(=O)c1cc(Oc2ccc(NC(=O)Nc3ccc(Cl)c(C(F)(F)F)c3)c(F)c2)ccn1 [REGORAFENIB] | > 30 µM (inactive) | > 30 µM (inactive) | > 30 µM (inactive) | > 30 µM (inactive) | > 30 µM (inactive) | > 30 µM (inactive) | > 30 µM (inactive) | > 30 µM (inactive) | > 30 µM (inactive) | > 30 µM (inactive)
10 | COc1cc2nccc(Oc3ccc(NC(=O)Nc4cc(C)on4)c(Cl)c3)c2cc1OC [TIVOZANIB] | > 30 µM (inactive) | 0.302 µM (active) | > 30 µM (inactive) | > 30 µM (inactive) | > 30 µM (inactive) | > 30 µM (inactive) | > 30 µM (inactive) | > 30 µM (inactive) | > 30 µM (inactive) | > 30 µM (inactive)
11 | CCS(=O)(=O)N1CC(CC#N)(n2cc(-c3ncnc4[nH]ccc34)cn2)C1 [BARICITINIB] | > 30 µM (inactive) | > 30 µM (inactive) | > 30 µM (inactive) | > 30 µM (inactive) | > 30 µM (inactive) | > 30 µM (inactive) | > 30 µM (inactive) | 0.312 µM (active) | > 30 µM (inactive) | > 30 µM (inactive)

Now from value to compound:

Row | Kd [1] | Kd [2] | Kd [3] | Kd [4] | Kd [5] | Kd [6] | Kd [7] | Kd [8] | Kd [9] | Kd [10] | Compound
12 | > 30 µM (inactive) | > 30 µM (inactive) | > 30 µM (inactive) | > 30 µM (inactive) | > 30 µM (inactive) | > 30 µM (inactive) | > 30 µM (inactive) | > 30 µM (inactive) | > 30 µM (inactive) | > 30 µM (inactive) | Cn1cc(-c2ccc3nnc(C(F)(F)c4ccc5ncccc5c4)n3n2)cn1 [JNJ-38877605]
13 | 5.31 µM (active) | > 30 µM (inactive) | > 30 µM (inactive) | > 30 µM (inactive) | > 30 µM (inactive) | > 30 µM (inactive) | > 30 µM (inactive) | 0.704 µM (active) | > 30 µM (inactive) | > 30 µM (inactive) | COc1cc(N2CCC(N3CCN(C)CC3)CC2)ccc1Nc1ncnc(Nc2ccccc2S(=O)(=O)C(C)C)n1 [ASP-3026]
14 | > 30 µM (inactive) | > 30 µM (inactive) | > 30 µM (inactive) | > 30 µM (inactive) | > 30 µM (inactive) | > 30 µM (inactive) | > 30 µM (inactive) | > 30 µM (inactive) | > 30 µM (inactive) | > 30 µM (inactive) | Cn1cc(-c2ccc(F)c(C(F)(F)F)c2)nc1C1CCN(c2ncnc3[nH]ncc23)CC1 [LY-2584702]
15 | > 30 µM (inactive) | > 30 µM (inactive) | > 30 µM (inactive) | > 30 µM (inactive) | > 30 µM (inactive) | > 30 µM (inactive) | > 30 µM (inactive) | > 30 µM (inactive) | > 30 µM (inactive) | 21.5 µM (active) | O=C1NC(=O)/C(=C/c2ccc3nccc(-c4ccncc4)c3c2)S1 [GSK-1059615]

Reference: ChEMBL document CHEMBL3991601, “The target landscape of clinical kinase drugs” (Science, 2017)
